Experimental data from patent publication US11260116B2, “Vaccine compositions comprising an amphipathic compound, a neoantigen and a hydrophobic carrier, and methods of use thereof” (IMMUNOVACCINE TECHNOLOGIES INC., priority 2016, dated 2022).
Like-named read-outs stand apart in the source and are kept apart here.

Experiments:
[1] = cited from earlier work
mutated peptide = conditions: aqueous formulation, mice, cited from earlier work
Mut30 neoantigen = test: IFN-gamma ELISPOT of splenocytes from vaccinated mice; type: in vivo; conditions: Example 3, FIG. 2; C57BL/6 VAF/Elite Crl mice; DNA- or RNA-based poly I:C; single immunization; eight days after vaccination
Protocol: Pathogen free, C57BL/6 VAF/Elite® Crl mice, 6-8 weeks of age, were purchased from Charles River Laboratories (St. Constant, PQ) and housed according to institutional guidelines with water and food ad libitum under filter controlled air circulation.
Eight days after vaccination, mice were terminated and spleens collected. […] After 18 hours of culture, plates were developed and the number of spot forming units (SFU) counted using Immunospot Reader (C.T.L.). […] Statistical analysis was performed by 2-way ANOVA with Bonferroni post test comparing group responses to Mut30 peptide: *p<0.05, ***p<0.001.
Oil-based depot vaccine formulations were prepared with Mut30 antigen at a higher (100 micrograms) and lower (50 micrograms) dose.
To prepare the oil-based formulations, the Mut30 peptide (low or high dose amount), polyI:C adjuvant (DNA or RNA) and T-helper epitope (A16L peptide) were first reconstituted in an acetate buffer (0.1M, pH 9.5) with DOPC and cholesterol (Lipoid, Germany). The vaccine components were then lyophilized to form a dry cake. Just prior to injection, the dry cake was reconstituted in ISA51 VG oil (SEPPIC, France).
Mice in group 1 (n=6) were vaccinated with 100 microliters of an oil-based depot vaccine containing 100 micrograms of Mut30 neoantigen, 50 micrograms of A16L peptide, 40 micrograms of DNA-based poly I:C, 12 milligrams of DOPC and 1.2 milligrams of cholesterol. […]

Row | Compound | bioavailability by route of administration ([1]; intravenous infusion vs parenteral and oral) | Total systemic clearance of CPA and its metabolites ([1]; patients) | elimination half-life on repeated administration ([1]; repeated administration) | peak plasma levels of the parent ([1]; vary between patients) | immune reaction to Mut30 reported by Castle 2012 (mutated peptide) | immune reaction to Mut30 reported by Castle 2012 (mutated peptide; listed as Mut30 neoantigen) | IFN-gamma ELISPOT immune response to Mut30, high (100 micrograms) vs low (50 micrograms) dose (Mut30 neoantigen)
1 | O=P1(N(CCCl)CCCl)NCCCO1 (stereo not shown) [Cyclophosphamide, N,N-bis(2-chloroethyl)-1,3,2-oxazaphosphinan-2-amine 2-oxide] | little difference in bioavailability | 5 to 9 h | shorten elimination half-life | 3 to 11 h | – | – | –
2 | Mut30: Kif18b neoantigen (K739N) from B16F10 melanoma, PSKPSFQEFVDWENVSPELNSTDQPFL (SEQ ID NO: 2), from Castle 2012 (Mut30 Neoantigen) | – | – | – | – | strong immune reaction preferentially against the mutated peptide | strong mutation-specific immune responses | No statistically significant difference
